Measurements: the NIST ThermoML archive (doi:10.1021/je100369a)
± gives the expanded uncertainty stated by the source.

Assays:
[1] = mn = molality of the nth substance listed, in mol/kg; details: 101 kPa, Liquid
[2] = 101.33 kPa, Liquid
[3] = refractive index (Na D-line) (dimensionless); details: 101.33 kPa, Liquid, Standard Abbe refractometry

Oc1ccccc1C=NCCN=Cc1ccccc1O [2,2'-[ethylenebis(nitrilomethylidyne)]diphenol] + CC(=O)N(C)C
mass density [kg/m3], [1]
Details | m1 = 0.0298 | m1 = 0.0503 | m1 = 0.0704 | m1 = 0.0902 | m1 = 0.11 | m1 = 0.13 | m1 = 0.151 | m1 = 0.1699 | m1 = 0.1898
288.15 K | 946.92 ± 0.5 | 947.9 ± 0.51 | 948.86 ± 0.51 | 949.8 ± 0.5 | 950.76 ± 0.53 | 951.71 ± 0.53 | 952.73 ± 0.54 | 953.61 ± 0.55 | 954.55 ± 0.55
298.15 K | 937.72 ± 0.52 | 938.72 ± 0.53 | 939.69 ± 0.53 | 940.66 ± 0.54 | 941.6 ± 0.54 | 942.56 ± 0.55 | 943.57 ± 0.56 | 944.49 ± 0.56 | 945.43 ± 0.57
308.15 K | 928.51 ± 0.54 | 929.52 ± 0.54 | 930.5 ± 0.55 | 931.48 ± 0.55 | 932.43 ± 0.56 | 933.41 ± 0.57 | 934.41 ± 0.57 | 935.35 ± 0.58 | 936.28 ± 0.59
318.15 K | 919.27 ± 0.56 | 920.29 ± 0.56 | 921.29 ± 0.57 | 922.28 ± 0.57 | 923.25 ± 0.58 | 924.23 ± 0.58 | 925.25 ± 0.59 | 926.19 ± 0.6 | 927.14 ± 0.6

Oc1ccccc1C=NCCN=Cc1ccccc1O [2,2'-[ethylenebis(nitrilomethylidyne)]diphenol] + ClC(Cl)Cl
mass density [kg/m3], [1]
Details | m1 = 0.0099 | m1 = 0.03 | m1 = 0.0498 | m1 = 0.0702 | m1 = 0.0904 | m1 = 0.1102 | m1 = 0.1336 | m1 = 0.1501 | m1 = 0.19
283.15 K | 1495.46 ± 1.1 | 1493.53 ± 1.1 | 1491.63 ± 1.1 | 1489.69 ± 1.1 | 1487.79 ± 1.1 | 1485.95 ± 1.1 | 1483.73 ± 1.1 | 1482.28 ± 1.1 | 1478.69 ± 1.2
288.15 K | 1486.15 ± 1.1 | 1484.27 ± 1.1 | 1482.44 ± 1.1 | 1480.56 ± 1.1 | 1478.71 ± 1.1 | 1476.92 ± 1.1 | 1474.75 ± 1.1 | 1473.37 ± 1.1 | 1469.85 ± 1.1
293.15 K | 1476.77 ± 1 | 1474.97 ± 1 | 1473.19 ± 1.1 | 1471.36 ± 1.1 | 1469.56 ± 1.1 | 1467.84 ± 1.1 | 1465.71 ± 1.1 | 1464.38 ± 1.1 | 1460.93 ± 1.1
298.15 K | 1467.41 ± 1 | 1465.66 ± 1 | 1463.95 ± 1 | 1462.15 ± 1.1 | 1460.41 ± 1.1 | 1458.74 ± 1.1 | 1456.68 ± 1.1 | 1455.37 ± 1.1 | 1452.05 ± 1.1

ClCCl [dichloromethane]
Details | mass density, 283.15 K [kg/m3] | mass density, 288.15 K [kg/m3] | mass density, 293.15 K [kg/m3] | mass density, 298.15 K [kg/m3] | refractive index, 283.15 K | refractive index, 288.15 K | refractive index, 293.15 K | refractive index, 298.15 K
[2] | 1343.65 ± 0.36 | 1334.57 ± 0.35 | 1325.43 ± 0.34 | 1316.27 ± 0.34 | – | – | – | –
[3] | – | – | – | – | 1.4305 ± 0.0007 | 1.4276 ± 0.0007 | 1.4251 ± 0.0007 | 1.4219 ± 0.0008

Oc1ccccc1C=NCCN=Cc1ccccc1O [2,2'-[ethylenebis(nitrilomethylidyne)]diphenol] + ClCCl
mass density [kg/m3], [1]
Details | m1 = 0.0306 | m1 = 0.049 | m1 = 0.0703 | m1 = 0.0903 | m1 = 0.1103 | m1 = 0.1301 | m1 = 0.15 | m1 = 0.1702 | m1 = 0.1911
283.15 K | 1342.32 ± 0.68 | 1341.5 ± 0.69 | 1340.58 ± 0.69 | 1339.65 ± 0.69 | 1338.77 ± 0.7 | 1337.88 ± 0.7 | 1337.01 ± 0.71 | 1336.07 ± 0.71 | 1335.14 ± 0.72
288.15 K | 1333.32 ± 0.67 | 1332.54 ± 0.67 | 1331.67 ± 0.68 | 1330.82 ± 0.68 | 1329.93 ± 0.68 | 1329.12 ± 0.69 | 1328.26 ± 0.69 | 1327.34 ± 0.7 | 1326.47 ± 0.7
293.15 K | 1324.26 ± 0.66 | 1323.56 ± 0.66 | 1322.69 ± 0.66 | 1321.91 ± 0.67 | 1321.06 ± 0.67 | 1320.31 ± 0.67 | 1319.5 ± 0.68 | 1318.65 ± 0.68 | 1317.78 ± 0.69
298.15 K | 1315.18 ± 0.64 | 1314.5 ± 0.64 | 1313.71 ± 0.65 | 1312.95 ± 0.65 | 1312.16 ± 0.66 | 1311.43 ± 0.66 | 1310.67 ± 0.66 | 1309.84 ± 0.67 | 1309.07 ± 0.68

ClC(Cl)Cl [trichloromethane]
Details | mass density, 283.15 K [kg/m3] | mass density, 288.15 K [kg/m3] | mass density, 293.15 K [kg/m3] | mass density, 298.15 K [kg/m3] | refractive index, 283.15 K | refractive index, 288.15 K | refractive index, 293.15 K | refractive index, 298.15 K
[2] | 1496.43 ± 1.1 | 1487.09 ± 1.1 | 1477.68 ± 1 | 1468.28 ± 1 | – | – | – | –
[3] | – | – | – | – | 1.45 ± 0.0007 | 1.4471 ± 0.0007 | 1.4439 ± 0.0007 | 1.442 ± 0.0006

CC(=O)N(C)C [N,N-dimethylethanamide]
Details | mass density, 288.15 K [kg/m3] | mass density, 298.15 K [kg/m3] | mass density, 308.15 K [kg/m3] | mass density, 318.18 K [kg/m3] | refractive index, 288.15 K | refractive index, 298.15 K | refractive index, 308.15 K | refractive index, 318.18 K
[2] | 945.5 ± 0.49 | 936.28 ± 0.51 | 927.05 ± 0.53 | 917.79 ± 0.55 | – | – | – | –
[3] | – | – | – | – | 1.4382 ± 0.0006 | 1.4346 ± 0.0006 | 1.4312 ± 0.0006 | 1.426 ± 0.0007

Oc1ccccc1C=NCCN=Cc1ccccc1O [2,2'-[ethylenebis(nitrilomethylidyne)]diphenol] + C[S+](C)[O-]
mass density [kg/m3], [1]
Details | m1 = 0.0098 | m1 = 0.03 | m1 = 0.0502 | m1 = 0.0697 | m1 = 0.0903 | m1 = 0.1097 | m1 = 0.13 | m1 = 0.1502 | m1 = 0.1701 | m1 = 0.1893
288.15 K | 1105.42 ± 0.44 | 1105.67 ± 0.44 | 1105.93 ± 0.44 | 1106.18 ± 0.45 | 1106.45 ± 0.45 | 1106.71 ± 0.45 | 1106.99 ± 0.46 | 1107.28 ± 0.46 | 1107.55 ± 0.46 | 1107.81 ± 0.47
298.15 K | 1095.42 ± 0.42 | 1095.69 ± 0.42 | 1095.96 ± 0.42 | 1096.23 ± 0.42 | 1096.52 ± 0.43 | 1096.79 ± 0.43 | 1097.08 ± 0.43 | 1097.39 ± 0.44 | 1097.66 ± 0.44 | 1097.91 ± 0.44
308.15 K | 1085.39 ± 0.39 | 1085.68 ± 0.39 | 1085.97 ± 0.4 | 1086.26 ± 0.4 | 1086.56 ± 0.4 | 1086.85 ± 0.41 | 1087.14 ± 0.41 | 1087.45 ± 0.41 | 1087.75 ± 0.42 | 1088.03 ± 0.42
318.15 K | 1075.36 ± 0.37 | 1075.67 ± 0.37 | 1075.98 ± 0.37 | 1076.28 ± 0.38 | 1076.6 ± 0.38 | 1076.9 ± 0.38 | 1077.22 ± 0.39 | 1077.56 ± 0.39 | 1077.84 ± 0.39 | 1078.13 ± 0.4

CN(C)C=O [dimethylformamide]
Details | mass density, 288.15 K [kg/m3] | mass density, 298.15 K [kg/m3] | mass density, 308.15 K [kg/m3] | mass density, 318.15 K [kg/m3] | refractive index, 288.15 K | refractive index, 298.15 K | refractive index, 308.15 K | refractive index, 318.15 K
[2] | 953.58 ± 0.48 | 944.06 ± 0.5 | 934.52 ± 0.52 | 924.9 ± 0.54 | – | – | – | –
[3] | – | – | – | – | 1.431 ± 0.0006 | 1.4276 ± 0.0006 | 1.423 ± 0.0007 | 1.418 ± 0.0007

Oc1ccccc1C=NCCN=Cc1ccccc1O [2,2'-[ethylenebis(nitrilomethylidyne)]diphenol] + CN(C)C=O
mass density [kg/m3], [1]
Details | m1 = 0.0302 | m1 = 0.049 | m1 = 0.0701 | m1 = 0.0913 | m1 = 0.1101 | m1 = 0.1238 | m1 = 0.1483 | m1 = 0.1702 | m1 = 0.1886
288.15 K | 954.99 ± 0.49 | 955.87 ± 0.49 | 956.86 ± 0.5 | 957.85 ± 0.5 | 958.72 ± 0.51 | 959.36 ± 0.52 | 960.5 ± 0.52 | 961.48 ± 0.53 | 962.35 ± 0.54
298.15 K | 945.49 ± 0.5 | 946.39 ± 0.51 | 947.39 ± 0.52 | 948.39 ± 0.52 | 949.27 ± 0.53 | 949.91 ± 0.53 | 951.05 ± 0.54 | 952.08 ± 0.55 | 952.94 ± 0.55
308.15 K | 935.97 ± 0.52 | 936.88 ± 0.53 | 937.89 ± 0.53 | 938.9 ± 0.54 | 939.79 ± 0.55 | 940.44 ± 0.55 | 941.6 ± 0.56 | 942.63 ± 0.57 | 943.48 ± 0.57
318.15 K | 926.38 ± 0.54 | 927.29 ± 0.55 | 928.32 ± 0.55 | 929.35 ± 0.56 | 930.25 ± 0.56 | 930.91 ± 0.57 | 932.08 ± 0.58 | 933.14 ± 0.58 | 933.99 ± 0.59

C[S+](C)[O-] [dimethyl sulfoxide]
Details | mass density, 288.15 K [kg/m3] | mass density, 298.15 K [kg/m3] | mass density, 308.15 K [kg/m3] | mass density, 318.15 K [kg/m3] | refractive index, 288.15 K | refractive index, 298.15 K | refractive index, 308.15 K | refractive index, 318.15 K
[2] | 1105.3 ± 0.15 | 1095.29 ± 0.15 | 1085.25 ± 0.14 | 1075.21 ± 0.13 | – | – | – | –
[3] | – | – | – | – | 1.4793 ± 0.0006 | 1.4752 ± 0.0006 | 1.471 ± 0.0006 | 1.467 ± 0.0006
